For test [1], the system named is BAFF mRNA in the kidney. Kind of test: BAFF mRNA expression in the kidney of SLE model mice (Real-Time RT-PCR). The note with it: Drug A 30 mg/kg twice a day, Drug B 3 mg/kg once a day, oral, 10 weeks; for BAFF Relative index: kidney mRNA relative to control group = 1.000; for BAFF mRNA expression level (%): kidney, female NZB/WF1 mice, control = 100%, mean ± standard error of 10 to 11 mice. The class given is in vivo, NZB/WF1 mice. Here is the method: (§1) Actions of suppressing the expression of disease-associated genes in the kidney by the administration of 2-benzyl-5-(4-chlorophenyl)-6-[4-(methylthio)phenyl]-2H-pyridazine-3-one (hereinafter referred to as Drug A) and prednisolone (hereinafter referred to as Drug B) in combination and the administration of each drug alone were evaluated by using NZB×NZW (NZB/W)F1 mice widely known as spontaneous SLE models.
(§2) Female NZB/WF1 mice (Japan SLC, Inc.) were used as test animals.
(§3) The bodyweight of 20-week-old NZB/WF1 mice was measured. By using the body weight as an index, the mice were divided into groups through one-parameter-based block randomization so that each group becomes uniform.
(§4) Drug administration was conducted from the day after the grouping to 10 weeks thereafter. To a group for sole administration of Drug A, a dose of 30 mg/kg was orally administered, twice a day, in the morning (9:00 to 11:00) and in the evening (15:30 to 17:30). Further, to a group for sole administration of Drug B, a dose of 3 mg/kg was orally administered, once a day, in the daytime (11:30 to 13:30). On the other hand, to a group for combined administration of Drug A and Drug B, 30 mg/kg of Drug A was orally administered in the morning (9:00 to 11:00) and in the evening (15:30 to 17:30), and 3 mg/kg of Drug B was orally administered in the daytime (11:30 to 13:30).
(§5) 10 weeks after the grouping (at the time of 30 weeks old), the kidney was excised from each individual and horizontally divided into two portions. After that, the kidney was subjected to RNase inactivation treatment that involves immersing the kidney in RNAlater (manufactured by QIAGEN GmbH) at 4° C. for 24 hours. […] The mRNA expression levels of SLE-associated genes (IFN-y (probe No.: Mm00801778_m1), TNF-α (probe No.: Mm00443258_m1), IL-1β (probe No.: Mm00434228_m1), BAFF (probe No.: Mm00446347_m1), IFIT1 (probe No.: Mm00515153_m1), and IP-10 (probe No.: Mm00445235_m1)) were determined by using ABI PRISM (registered trademark) 7900 Sequence Detection System (manufactured by Applied Biosystems, Inc.) and TaqMan (registered trademark) Gene Expression Assays (manufactured by Applied Biosystems, Inc.) by Real-Time RT-PCR method. […]
(§6) Tables 1 to 6 and FIGS. 1 to 6 each show the mRNA expression levels of IFN-γ (Table 1, FIG. 1), TNF-α (Table 2, FIG. 2), IL-1β (Table 3, FIG. 3), BAFF (Table 4, FIG. 4), IFIT1 (Table 5, FIG. 5), and IP-10 (Table 6, FIG. 6) in the kidney in a control group, a group for sole administration of 30 mg/kg of Drug A, a group for sole administration of 3 mg/kg of Drug B, and a group for combined administration of both Drugs. […] The mRNA expression level is expressed as mean±standard error of 10 to 11 mice in each group. […]

In test [2] the test system is IL-1β mRNA in the kidney. Kind of test: IL-1β mRNA expression in the kidney of SLE model mice (Real-Time RT-PCR). The format is in vivo, NZB/WF1 mice. The note with it: Drug A 30 mg/kg twice a day, Drug B 3 mg/kg once a day, oral, 10 weeks; for IL-1β Relative index: kidney mRNA relative to control group = 1.000; for IL-1β mRNA expression level (%): kidney, female NZB/WF1 mice, control = 100%, mean ± standard error of 10 to 11 mice. Here is the method: as §1, §2, §3, §4, §5, §6

The subject of test [3] is TNF-α mRNA in the kidney. The experiment in a line: TNF-α mRNA expression in the kidney of SLE model mice (Real-Time RT-PCR). The format is in vivo, NZB/WF1 mice. The note with it: Drug A 30 mg/kg twice a day, Drug B 3 mg/kg once a day, oral, 10 weeks; for TNF-α Relative index: kidney mRNA relative to control group = 1.000; for TNF-α mRNA expression level (%): kidney, female NZB/WF1 mice, control = 100%, mean ± standard error of 10 to 11 mice. The method, then: as §1, §2, §3, §4, §5, §6

In test [4] the test system is SLE-associated genes in the kidney. Kind of test: Expression of SLE-associated genes in the kidney of SLE model mice, overall statement. The format is in vivo. Conditions: NZB/WF1 mice, oral, 10 weeks, Drug A 30 mg/kg twice a day, Drug B 3 mg/kg once a day, Dunnett's test vs control. Here is the method:
as §1, §2, §3, §4
as §5, with “portions.” for “portions. After that, the kidney was subjected to RNase inactivation treatment that involves immersing the kidney in RNAlater (manufactured by QIAGEN GmbH) at 4° C. for 24 hours.”

The test system of test [5] is IP-10 mRNA in the kidney. Kind of test: IP-10 mRNA expression in the kidney of SLE model mice (Real-Time RT-PCR). The format is in vivo, NZB/WF1 mice. The note with it: Drug A 30 mg/kg twice a day, Drug B 3 mg/kg once a day, oral, 10 weeks; for IP-10 Relative index: kidney mRNA relative to control group = 1.000; for IP-10 mRNA expression level (%): kidney, female NZB/WF1 mice, control = 100%, mean ± standard error of 10 to 11 mice. Here is the method: as §1, §2, §3, §4, §5, §6
Background: Real-time PCR tracks product formation cycle by cycle.

In test [6] the test system is IFN-γ mRNA in the kidney. The experiment in a line: IFN-γ mRNA expression in the kidney of SLE model mice (Real-Time RT-PCR). The format is in vivo, NZB/WF1 mice. The note with it: Drug A 30 mg/kg twice a day, Drug B 3 mg/kg once a day, oral, 10 weeks; for IFN-γ Relative index: kidney mRNA relative to control group = 1.000; for IFN-γ mRNA expression level (%): kidney, female NZB/WF1 mice, control = 100%, mean ± standard error of 10 to 11 mice. The method, then:
as §1, §2, §3, §4, §5, §6

Test [7] relates to IFIT1 mRNA in the kidney. The experiment in a line: IFIT1 mRNA expression in the kidney of SLE model mice (Real-Time RT-PCR). The format is in vivo, NZB/WF1 mice. The note with it: Drug A 30 mg/kg twice a day, Drug B 3 mg/kg once a day, oral, 10 weeks; for IFIT1 Relative index: kidney mRNA relative to control group = 1.000; for IFIT1 mRNA expression level (%): kidney, female NZB/WF1 mice, control = 100%, mean ± standard error of 10 to 11 mice. Here is the method: as §1, §2, §3, §4, §5, §6

The values that follow come from patent US20100120732A1, “AGENT FOR PREVENTION AND/OR TREATMENT OF SYSTEMIC LUPUS ERYTHEMATOSUS” (KOWA CO., LTD., priority 2007, published 2010).

With `C[C@]12C=CC(=O)C=C1CC[C@@H]1[C@@H]2[C@@H](O)C[C@@]2(C)[C@H]1CC[C@]2(O)C(=O)CO` [Drug B, prednisolone, reference compound], in test [1], the “BAFF Relative index” value is 0.722 and the “BAFF mRNA expression level (%)” value is 72.2 ± 13.1%. In test [2], the “IL-1β Relative index” value came out at 0.661 and the “IL-1β mRNA expression level (%)” value is on record as 66.1 ± 21.9%. Also, in test [3], the “TNF-α Relative index” value is reported as 0.522 and the “TNF-α mRNA expression level (%)” value was found to be 52.2 ± 13.2%. The “action on the expression of SLE-associated genes in the kidney (in words)” value (“action on the expression” for short) in test [4] was “exhibited a tendency to suppress the expression of any gene”. Also, in test [5], the “IP-10 Relative index” value was determined as 0.635 and the “IP-10 mRNA expression level (%)” value was determined as 63.5 ± 9.9%. Further, in test [6], the “IFN-γ Relative index” value was 0.360 and the “IFN-γ mRNA expression level (%)” value is given as 36.0 ± 13.1%. Also, in test [7], the “IFIT1 Relative index” value worked out at 0.786 and the “IFIT1 mRNA expression level (%)” value came out at 78.6 ± 15.0%.
As to `CSc1ccc(-c2nn(Cc3ccccc3)c(=O)cc2-c2ccc(Cl)cc2)cc1` [Drug A, 2-benzyl-5-(4-chlorophenyl)-6-[4-(methylthio)phenyl]-2H-pyridazine-3-one], in test [1], the “BAFF Relative index” value is on record as 1.135 and the “BAFF mRNA expression level (%)” value amounted to 113.5 ± 13.7%. For the same compound, in test [2], the “IL-1β Relative index” value is listed as 1.266 and the “IL-1β mRNA expression level (%)” value was determined as 126.6 ± 50.3%. Moreover, in test [3], the “TNF-α Relative index” value is recorded as 0.634 and the “TNF-α mRNA expression level (%)” value was 63.4 ± 13.5%. Also, the “action on the expression” value in test [4] is given as “exhibited no action on the expression of SLE-associated genes in the kidney of this model or exhibited only a tendency to slightly suppress the expression”. The “action on the expression” value in test [4] (listed as 2-benzyl-5-(4-chlorophenyl)-6-[4-(methylthio)phenyl]-2H-pyridazine-3-one) is recorded as “there was not confirmed a significant action of suppressing the expression of SLE-associated genes in the kidney”. Besides, in test [5], the “IP-10 Relative index” value came out at 0.883 and the “IP-10 mRNA expression level (%)” value is listed as 88.3 ± 18.1%. For the same compound, in test [6], the “IFN-γ Relative index” value is 0.857 and the “IFN-γ mRNA expression level (%)” value is given as 85.7 ± 27.1%. Also, in test [7], the “IFIT1 Relative index” value turned out to be 0.721 and the “IFIT1 mRNA expression level (%)” value was 72.1 ± 15.6%.
